Measurements taken from the METLIN SMRT retention time set (Domingo-Almenara et al. 2019).

Assay: gradient 5% acetonitrile 3 min, to 50% in 2 min, to 85% in 15 min, held 3 min, 100 µL/min
Settings: column: Zorbax Extend-C18 2.1 x 50 mm; eluents: water / acetonitrile, 0.1% formic acid
Summary of the method: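 Retention times of pure standards were taken from adduct peaks that were selected by computer and manually inspected. Over 3 months, mixtures of ~100 molecules were run by HPLC–quadrupole time-of-flight mass spectrometry in positive and negative ionization mode. The Zorbax Extend-C18 column (2.1 × 50 mm, 1.8 μm) ran at 100 μL/min in water and acetonitrile, each containing 0.1% formic acid, with 40 μL dead volume and 900 μL dwell volume.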

| RP-LC retention time [s] | Compound |
| --- | --- |
| 957 | Fc1ccc(-c2nnc(Cc3nc(-c4ccc5c(c4)OCO5)no3)o2)cc1 |
| 1000 | O=C(c1ccccc1)c1ccc(-c2ccc(O)cc2)cc1 |
| 1320 | Cc1ccc(-c2csc(Cc3nc(-c4ccc(F)cc4)no3)n2)cc1C |
| 667 | CC(=O)N1CCc2cc(N3CC(C(=O)Nc4ccc5c(c4)OCCO5)CC3=O)ccc21 (stereo not given) |
| 660 | COc1ccc(-c2ncccc2CNS(=O)(=O)c2cccc(C#N)c2)cc1 |
| 763 | CCN1c2ccc(F)cc2C(=O)NC12CCN(C(=O)c1ccccc1)CC2 |
| 707 | CCn1cc(S(=O)(=O)N2CCC(c3noc(-c4ccncc4)n3)C2)cn1 (stereo not given) |
| 1200 | CCOc1cc(C(=O)N2CCCC2c2nc(-c3ccc(C)cc3)no2)cc(OCC)c1OCC (stereo not given) |
| 828 | O=C(Nc1ccc(F)cc1)N1CCC(n2cnc3ccc(Cl)cc3c2=O)CC1 |
| 808 | COc1ccccc1N1CCN(c2ncc3c(n2)CCN(Cc2cccc(F)c2)C3)CC1 |
| 1020 | CCOc1ccccc1NC(=O)Cn1nc2cc(-c3ccc(OC)cc3)nc(C)n2c1=O |
| 1160 | CCOC(=O)c1ccccc1NC(=O)Cn1cccc(-c2nc(-c3ccc(Cl)cc3)no2)c1=O |
| 948 | O=C(Cn1cnc2c(sc3nc(-c4ccccc4)ccc32)c1=O)Nc1ccc2c(c1)OCCO2 |
| 1100 | CC(C)CC(=O)Nc1ccc(-c2nc(-c3ccccc3)co2)cc1 |
| 1120 | c1ccc(Cc2nnc3sc(-c4ccc5ccccc5n4)nn23)cc1 |
| 916 | Cc1noc(C)c1-c1ccc(S(=O)(=O)Nc2cccc(F)c2)cc1 |
| 627 | Cc1cc2nn(CC(=O)Nc3cc(F)ccc3C)c(=O)n2c(-c2ccccc2)n1 |
| 720 | CCS(=O)(=O)Nc1ccc(-c2noc(CNS(=O)(=O)c3ccccc3)n2)cc1 |
| 702 | COc1ccc(Nc2c(-c3ccc(SC)cc3)nc3ncccn23)cc1OC |
| 924 | CCOC(=O)COc1cc(-c2ccc(F)cc2)nc2ccc(NC(=O)COc3ccccc3)cc12 |
| 983 | Cc1ccc(CNC(=O)c2nc(Cn3c(=O)oc4ccc(Cl)cc43)no2)cc1 |
| 1090 | Cc1ccccc1-c1nc(C2CC(=O)N(c3ccc(Cl)cc3)C2)no1 (stereo not given) |
| 646 | O=C(Cc1ccc(F)cc1)NCC(=O)N1CCOC(c2ccccc2)C1 (stereo not given) |
| 952 | Fc1ccccc1CNc1nnc(-c2nc(C3CC3)no2)c2ccccc12 |
| 877 | O=c1ccn(-c2ccc(F)c(F)c2)nc1-c1nc(-c2ccc3c(c2)OCO3)no1 |
| 742 | O=C1CCCN1c1ccc(Cn2nc3ccc(-c4ccc(Cl)cc4)nn3c2=O)cc1 |
| 766 | COc1ccc(-c2cn3c(CC(=O)Nc4ccc(F)cc4Cl)csc3n2)cc1OC |
| 1090 | CC(NC(=O)c1ccccc1)c1nc(-c2ccc3oc(-c4ccccc4)nc3c2)no1 (stereo not given) |

Second part, the compound before the results:

| Compound | RP-LC retention time [s] |
| --- | --- |
| CC1CCC2(CC1)NC(=O)N(CC(=O)NCc1ccccc1)C2=O (stereo not given) | 784 |
| Cc1ccc(-n2nc(C)c(S(=O)(=O)N3CCC(C(=O)N4CCN(C)CC4)CC3)c2C)cc1 | 629 |
| O=C(NCCc1ccco1)c1ccc2c(c1)nc1n2CCCCC1 | 611 |
| Cc1ccc(CNC(=O)C2(c3ccc(NS(C)(=O)=O)cc3)CCCCC2)cc1 | 943 |
| Cc1ccc(S(=O)(=O)N2CCC(C(=O)NCc3csc(-c4cccs4)n3)CC2)cc1 | 910 |
| CCOc1ccc(N(C)S(=O)(=O)c2ccsc2C(=O)NCCCc2ccccc2)cc1 | 1210 |
| CCn1ccc(C(=O)N2CCCn3cc(-c4cccc(C#N)c4)nc32)n1 | 639 |
| O=C(CSCC(=O)c1ccccc1)c1ccccc1 | 880 |
| CN1CCN(CCCNC(=O)C2CCc3sc(C(=O)N4CCCCCC4)cc3C2)CC1 (stereo not given) | 581 |
| Cn1c(C(=O)NCC2CCCO2)cc2c1CCN(Cc1cccc(F)c1)C2 (stereo not given) | 618 |
| Cc1cccc(CNC(=O)c2sc(CC(=O)N3CCSCC3)nc2C)c1 | 798 |
| Cc1cccc(NC(=O)CN2CCN(Cc3nc4ccccc4[nH]3)CC2)c1C | 541 |
| COCCO[C@H]1C(=O)N(C2CCN(S(=O)(=O)C(C)C)CC2)[C@H]1c1ccncc1 | 572 |
| COc1ccc(CNC(=O)c2ccc(CN3CCN(C(C)C)C(=O)C3=O)cc2)cc1 | 693 |
| CC(C)CC(=O)N1CCCC(C(=O)N2CCOCC2)C1 (stereo not given) | 628 |
| COc1ccc(C)cc1NC(=O)Cn1nc(N2CCCC2)c2ccccc2c1=O | 840 |
| COC(=O)c1ccccc1NS(=O)(=O)c1ccc(Br)cc1 | 1030 |
| COC1CCOC2(CCN(C(=O)c3cccs3)CC2)C1 (stereo not given) | 703 |
| O=C(c1csc(S(=O)(=O)N2CCC(C(=O)N3CCCCCC3)CC2)c1)N1CCOCC1 | 722 |
| C=CCn1c(C)c(CC(=O)NCC2CCCO2)c(=O)n2nc(-c3ccccc3)nc12 (stereo not given) | 717 |
| O=C(Nc1ccc(Cl)cc1F)C1CCCN(C(=O)c2cc(-c3ccccn3)n[nH]2)C1 (stereo not given) | 740 |

| Compound | RP-LC retention time [s] |
| --- | --- |
| O=C(NCCc1ccccn1)C1CN(C(=O)c2cccs2)CC12CCCCC2 (stereo not given) | 602 |
| Cc1ccc(NC(=O)N2CCC(C(C)C(=O)Nc3ccc(Cl)cc3)CC2)cc1 (stereo not given) | 951 |
| Cc1ccc(CC(=O)N2CCN(c3cc(-c4cccs4)[nH]n3)CC2)cc1 | 758 |
| O=C(Nc1cnn(-c2ncncc2N2CCSCC2)c1)C1CCCCC1 | 778 |
| CN1CCc2nnc(C3CCN(C(=O)Nc4ccc(Cl)cc4C(F)(F)F)C3)n2CC1 (stereo not given) | 610 |
| CC(C)NC(=O)c1ccc2c(c1)CCN2C(=O)C1CC1 | 808 |
| Cc1noc(CNC(=O)CCCN2C(=O)c3ccccc3C2=O)n1 | 633 |
| O=C(c1cn2nc(Cl)ccc2n1)N1CCN(c2ccccc2F)CC1 | 836 |
| Cc1ccc(S(=O)(=O)N2CCCC(Cn3c(C4CC4)nc4cccnc43)C2)cc1F (stereo not given) | 819 |
| Cn1cc(-c2cc3n(n2)CCC(=O)N3CCCC(=O)NCC2COCCO2)c2ccccc21 (stereo not given) | 680 |
| Cn1c(=O)n(C)c2cc(CNCC(O)c3ccccc3)ccc21 (stereo not given) | 569 |
| CCC(Oc1ccc(Cl)cc1)C(=O)OC1CC2CCC(C1)N2C (stereo not given) | 815 |
| CCn1ncc(CN(C)C(=O)c2cn3ccccc3n2)c1C | 556 |
| O=C(CCc1cc(Cl)no1)N1CCC(c2nc(C3CCOCC3)no2)C1 (stereo not given) | 701 |
| CC(C)(C)OC(=O)COC(=O)c1cn(-c2cccc(F)c2)c(=O)c2ccccc12 | 1160 |
| CCc1nc2c(NC(=O)c3ccccc3)cccn2n1 | 792 |
| O=C(c1ccsc1)N1[C@H]2CC[C@@H]1c1cnc(-c3ccccc3)nc1C2 | 886 |
| Cc1ccc(CNC(=O)N2CCCC2c2cc(C)on2)cc1 (stereo not given) | 798 |
| Cn1cc(-c2ccncc2)cc1C(=O)NCc1ccccc1Br | 655 |
| O=C1c2cccc3cccc(c23)C(=O)N1c1cccnc1 | 631 |
| COc1ccc(CCC(=O)N2CCC3(C2)C(=O)Nc2ccc(OC)cc23)cc1 (stereo not given) | 751 |

| Compound | RP-LC retention time [s] |
| --- | --- |
| Cc1nnc(N2CCC(C(=O)N3CCN(c4ccccn4)CC3)CC2)c2nn(-c3ccccc3)c(C)c12 | 569 |
| Cc1nn(CC(=O)NCC2CCCO2)c(=O)c2nn(-c3ccccc3)c(C)c12 (stereo not given) | 651 |
| COc1ccc(F)cc1S(=O)(=O)NCC1(c2cccs2)CC1 | 933 |
| CC(=O)N1CCc2cc(N3CC(C(=O)Nc4cc(C)ccc4F)CC3=O)ccc21 (stereo not given) | 743 |
| O=C(Cn1cc(-c2ccccc2)c2ncnc(N3CCOCC3)c21)N1CCCC1 | 651 |
| Cc1cc2n(n1)CCC(=O)N2CCCC(=O)NC1CCCCC1 | 661 |
| CCC1CN2C=NC(N3CCN(C(=O)Nc4ccc(OC)c(F)c4)CC3)=CC2=N1 (stereo not given) | 622 |
| Cc1cc(OCC(=O)Nc2nc(-c3ccccc3)cs2)ccc1Cl | 1180 |
| CCCCOc1ccc(C(=O)NCCc2cn3ccc(C)cc3n2)cc1 | 588 |
| COC(=O)C1=C(CN2CCN(C)CC2)NC(=O)NC1c1ccccc1Cl (stereo not given) | 597 |
| O=C(NCc1ccc(-n2ccnc2)cc1)c1ccccc1C(F)(F)F | 610 |
| Cc1nnc(C2CC3(CCN(CCO)CC3)CN2CCc2ccccc2)o1 (stereo not given) | 574 |
| CCN(CC)CCCNC(=O)c1cc2n(n1)CC(C)(C(=O)NCc1ccc(F)cc1)N(C)C2=O (stereo not given) | 596 |
| CCN1C(=O)C(C)(C(=O)NCc2cccc(OC)c2)Oc2cccnc21 (stereo not given) | 829 |
| CCCCc1ccc(NC(=O)C2CCN(C(=O)C(C)(C)C)CC2)cc1 | 1020 |
| O=C(COc1ccccc1)Nc1nc(-c2ccccc2)cs1 | 1050 |
| COc1cccc(CNC(=O)Cn2ncc3c(c2=O)N(C2CC2)C(=O)CS3)c1 | 671 |
| CC(=O)N1CCC2(CC1)NC(=O)c1ccccc1O2 | 633 |
| CCCCCCNc1nc(-c2ccc(OC)cc2)c(CCC(=O)O)s1 | 716 |
| COC(=O)C(C)NC(=O)N1CCC2(CC1)Nc1cc(F)ccc1-n1cccc12 (stereo not given) | 865 |
